Data published in publication PMC10525585, “Evaluation of the Antibacterial Effect of Aurone-Derived Triazoles on Staphylococcus aureus” (Antibiotics, 2023).
Where two headings read alike, the source gives them in different places.

Columns and labels:
[1] = tested on: methicillin-sensitive S. aureus ATCC 29213 (MSSA); assay: microbe, parasite or virus in culture; conditions: for Max SI (CC50/IC50): HepG2 CC50 / MSSA IC50; for IC50 / inhibition at 100 µM: Staphylococcus aureus; for IC50: read-out: IC50 (µM) MSSA; for inhibition at 100 µM: read-out: MSSA inhibition (100µM)
Method: (§1) MRSA strain ATCC 43300 and MSSA strain S. aureus ATCC 29213 were grown on Tryptic Soy Agar (TSA) plates. Before use, an isolated colony was transferred from the TSA plate into Tryptic Soy Broth (TSB) and incubated 18–24 h in a humidified incubator at 37 °C. To adjust for a standard concentration of bacteria, the turbidity of the culture was measured at 600 nm, and its optical density (OD600) adjusted to be in the range 0.08–0.12 which equates to a concentration of approximately 1 × 10^8 CFU/mL. This suspension was diluted 1:20 in TSB. […] MRSA strain S. aureus ATCC 43300 and MSSA strain S. aureus ATCC 29213 were used for all testing in this study.
(§2) The assay for anti-Staphylococcal activity of AT compounds was prepared in 96-well transparent, U-bottom plates. A series of 2-fold dilutions of AT concentrations was tested in triplicate, with each well containing 10 µL of prepared bacterium and 90 µL of AT mixture in CAMHB. […] Blank wells with only CAMHB, a negative control well with 10 µL of bacterium solution mixed into 90 µL CAMHB, a vehicle control well with bacteria mixed into 1% DMSO in CAMBH, and a positive cell death control with vancomycin (1 µL of stock 2 mg/mL solution in 89 µL CAMHB with 10 µL of bacteria) were included. The plate was incubated for 18–24 h at 37 °C in a humidified incubator. Before measurement, PrestoBlue^TM dye (Invitrogen, Carlsbad, CA, USA) was added (10 µL per well) and incubated for 1 h with aluminum foil covering the plate. A CLARIOstar® (BMG LABTECH, Cary, NC, USA) multi-mode plate reader was used to measure the fluorescence at wavelengths of 560 nm for excitation and 590 nm for emission. Inhibitory concentration (IC50) values were defined as half inhibitory concentration and were computed using GraphPad Prism version 9.1 software.

Hemolysis assay = type: cell-based, human; conditions: human, human red blood cells (0.5% final suspension, single donor), 1 h, 37 °C, read-out: Hemolysis by AT Compounds (%)
Method: (§3) A single donor-specific blood sample was acquired from Innovative Research Inc. (Novi, MI, USA) for the assay (donor#:1WB3ALS40ML-36517). A volume of 1–2 mL of the human red blood cells (hRBCs in Alsevier’s solution) was mixed with 8–10 mL of Phosphate-Buffered Saline (PBS) in a 15 mL centrifuge tube to pellet by centrifugation at 1400× g in a swinging bucket centrifuge for 10 min. The supernatant was then removed, and the cells were washed with 10 mL of PBS two additional times. The cells were resuspended in PBS to achieve a final 1% solution of hRBCs.
(§4) The wells of a 96-well U-bottom plate that contained AT compounds were prefilled with 50 µL of PBS. A 2-fold dilution of AT compounds was prepared. For each triplicate, an initial AT dilution was prepared using 6 µL of AT stock solution in 144 µL of PBS. This initial mixture was diluted 2-fold on a 96-well plate following the method described above for a final volume of 50 µL of diluted AT in each well. As a final step, 50 µL of the 1% hRBC solution was added to each well, except the blank wells. PBS and hRBCs were used for negative control, whereas hRBCs with 1% and 0.1% Triton-X100 were used as positive controls. After 1 h of incubation at 37 °C in a humidified incubator, the plate was centrifuged at 1000 rpm for 10 min in a Thermo Sorvall Legend XTR centrifuge with a TX-750 swinging bucket rotor (Thermo Fisher Scientific, Waltham, MA, USA) to pellet intact cells. After centrifugation, 50 µL of supernatant was transferred from each well into a new 96-well U-bottom plate and hemolysis of the hRBCs detected in a plate-reader for absorbance at 405 nm. Hemolytic activity for all concentrations of the ATs was computed following this formula:(1) % hemolysis=OD405nmsample− OD405nmnegative control/OD405nmpositivecontrol[…]

human red blood cells = assay: Hemolysis assay; type: cell-based; conditions: overall statement
Method: as §3, §4

[2] = Cytotoxicity assay (PrestoBlue); conditions: human, HeLa cells (ATCC CCL-2)
Method: Human HeLa epithelial (ATCC CCL-2) and HepG2 liver epithelial (ATCC HB-8065) cell lines were used to determine toxicity of AT compounds for mammalian cells. The cells were grown in a complete culture medium of RPMI 1640 with 10% heat-inactivated fetal bovine serum (FBS) at 37 °C in 5% CO2 (95% room air) in a humidified incubator. Before use, attached cell monolayers, which had reached at least 90% confluency, were detached by trypsinization with trypsin-EDTA (0.25%) and resuspension in fresh complete culture media. For experiments, the stock concentration of 1 × 10^5 cells/mL (to achieve a final 1 × 10^4 cells/well concentration) was achieved by counting the trypsinized cells and adjusting to their final concentration for assays.
HeLa or HepG2 cells were pre-seeded into a 96-well transparent, flat bottom plate by adding a volume of 100 µL stock cell concentration (1 × 10^5 cells/mL) in complete culture media to each well. The plate was incubated overnight at 37 °C in a 5% CO2 (95% room air) humidified incubator. After the incubation and before mixing in the AT compounds, a 100 µL volume of fresh complete culture media was added to the pre-seeded wells. The 2-fold dilutions of AT compounds in triplicates were prepared on a separate 96-well plate. Once the dilution plate was prepared, dilutions were transferred into the pre-seeded plate to achieve the same concentrations of ATs as for the inhibition assay described above. The final inoculated plate was then returned to the 5% CO2 (95% room air) humidified incubator for an additional 24 h of incubation with the diluted ATs. Controls were blank wells containing only media, wells with cells and DMSO in complete culture media, and wells with cells and complete culture media only. Measurement of toxicity was analogous to the inhibition assay except that 20 µL of PrestoBlue^TM was used and the incubation was 3–6 h before reading with the plate-reader. Cytotoxicity concentration (CC50) was defined as the concentration where half of the cells remained viable and was computed using GraphPad Prism.

[3] = Cytotoxicity assay (PrestoBlue); type: cell-based, Human; conditions: human, HepG2 cells (ATCC HB-8065), Table 1 and text; 24 h incubation
[4] = tested on: methicillin-resistant S. aureus ATCC 43300 (MRSA); assay: Antibacterial assay (broth microdilution, PrestoBlue); type: cell-based, Staphylococcus aureus
Method: as §1, §2

[5] = CC50 (µM) HeLa, Table 1 and text, 24 h incubation
[6] = Staphylococcus aureus, Table 1 and text, 18–24 h, CAMHB, read-out: IC50 (µM) MRSA
[7] = Staphylococcus aureus, Table S1, read-out: IC50 MRSA
[8] = Staphylococcus aureus, Table S1

SMILES	Max SI (CC50/IC50) [1]	IC50 [1] [µM]	inhibition at 100 µM [1] [%]	hemolysis at 1 h, 3.125 µM (Hemolysis assay) [%]	hemolysis at 1 h, 6.25 µM (Hemolysis assay) [%]	hemolysis at 1 h, 12.5 µM (Hemolysis assay) [%]	hemolysis at 1 h, 25 µM (Hemolysis assay) [%]	hemolysis at 1 h, 50 µM (Hemolysis assay) [%]	hemolysis at 1 h, 100 µM (Hemolysis assay) [%]	hemolytic activity for human erythrocytes (human red blood cells)	CC50 at 24 h [2, 5] [µM]	CC50 at 24 h ([2]; CC50 HeLa (µM), Table S1) [µM]	CC50 at 24 h [3] [µM]	IC50 [4, 6] [µM]	IC50 [4, 7] [µM]	inhibition at 100 µM [4, 8] [%]	IC50 ([4]; Table 1 and text, 18–24 h, CAMHB, read-out: IC50 (µM) MRSA) [µM]
O=C(c1ccccc1O)c1n[nH]nc1-c1ccc(Cl)cc1 [AT106]	12.99	5.44	87.4	0.6	-0.1	1.2	1.2	-0.3	1.1	not hemolytic	> 60	16.2	> 60	22.4	23.5	64.1	
O=C(c1ccccc1O)c1n[nH]nc1-c1cccc(C(F)(F)F)c1 [AT116]	16.01	3.18	82	0.8	-0.7	2.3	2.1	2.6	3.5	not hemolytic	56.8	11.7	50.9	8.29	35.4	100	
O=C(c1ccccc1O)c1n[nH]nc1-c1ccc(Br)s1 [AT137]		3.09	87.5	-2.6	-0.5	-0.8	2.7	1.4	1.8	not hemolytic	2.84	12.7	39.8	< 6		93.8	3.87
